According to the NIST ThermoML archive (doi:10.1021/je7004038):
± gives the expanded uncertainty stated by the source.

Settings: Crystal; visual observation

O=[N+]([O-])/N=C1\NCCN1Cc1ccc(Cl)nc1 [imidacloprid]
Normal melting temperature: 144.00 ± 0.68 °C
